According to patent publication US9931350B2, “Anti-infective and osteogenic compositions and methods of use” (BRIGHAM YOUNG UNIVERSITY, priority 2014, dated 2018):
Values after ≈ are worked out from the molar mass of the structure shown.

Assays:
[1] = system: tobramycin-resistant P. aeruginosa (TRPA); assay: MIC against tobramycin-resistant P. aeruginosa; type: cell-based; conditions: Pseudomonas aeruginosa; TSB, 37° C., 24 hours
Procedure: (§1) Representative Procedure for Measuring MIC Values: A suspension is prepared of bacteria containing ˜10^6CFU (colony forming units)/mL from a culture incubated in TSB at 37° C. for 24 hours. Aliquots of 1 mL of the suspension are added to test tubes containing 1 mL TSB and incrementally varied concentrations of CSA compound. The samples are subjected to stationary incubation at 37° C. for 24 hours. Sample turbidity is determined by measuring absorption at 760 nm (HP 8453 UV-Visible Chemstation, Hewlett Packard). Additionally, an alliquot from each of the samples showing no measurable turbidity is subcultured on TSA plates (alliquots were diluted to provide fewer than 300 CFU). Colonies that grow on the subculture after overnight incubation are counted and the number of CFU/mL in the samples is calculated. The calculated values are compared to the number of CFU/mL in the original inoculum. MIC values are determined as the concentrations of the studied compounds at which the number of CFU/mL remained constant or decreased after incubation for 24 hours. CSA compounds were screened against methicillin-resistant S. aureus (MRSA) and tobramycin-resistant P. aeruginosa (TRPA).

[2] = system: methicillin-resistant S. aureus (MRSA); assay: MIC against methicillin-resistant S. aureus; type: cell-based; conditions: Staphylococcus aureus, TSB, 37° C., 24 hours
Procedure: as §1

open fracture = assay: Mammalian open fracture model, without bacteria inoculation; type: in vivo, rats
Text: (§2) In this model, infection was initiated by delivery of 10^4 CFU of pathogenic Staphlococcus aureus in ACS at the time of surgery. […] The primary outcome measure was the number of animals culled with infected fractures. Animal health and radiographic bone healing were monitored by an experienced veterinarian in a blinded fashion to inoculation or treatment. Animals diagnosed as having progressively deteriorating condition with XRs showing evidence of infection were culled and infection confirmed by culture swab post-mortem. Secondary outcome measures included union at 3 weeks and 6 weeks (excluding pin-slippage), and bone callus microCT measures at 6 weeks.

ectopic bone formation = assay: Mammalian ectopic bone formation model; type: in vivo, mouse
Text: Bone formation was examined by XR (Faxitron) and quantified by microCT (Skyscan 1174). Bone nodules were also examined by histology.

Staphlococcus aureus = assay: Mammalian open fracture model, inoculated with S. aureus; type: in vivo, rats
Text: as §2

Compound | MIC [1] | MIC [2] | Union rate at 3 weeks (open fracture; 3 weeks, treated groups with and without inoculation) | Union rate by 6 weeks (open fracture; 6 weeks) | Pin Slip Cull Rate (open fracture; no bacteria) | Infected Cull Rate (open fracture; no bacteria, 250 μg CSA-90 and/or 10 μg rhBMP-2 via ACS) | # Infected Culls (open fracture; no bacteria, animals/group) | # Pin Slips (open fracture; no bacteria, animals/group) | Mean bone volume by microCT (ectopic bone formation; 25 μg CSA-90 added to 10 μg rhBMP-2 in ACS, P=0.02) | Mean bone volume by microCT (ectopic bone formation; 250 μg CSA-90 added to 10 μg rhBMP-2 in ACS, P<0.01) | Osteoclast number, histological assessment (ectopic bone formation; CSA-90 treatment) | Histological assessment of bone nodules (ectopic bone formation; rhBMP-2 treated groups, CSA-90 treatment alone (250 μg)) | Pin Slip Cull Rate (Staphlococcus aureus; 10^4 cfu Staph) | Infected Cull Rate (Staphlococcus aureus; 10^4 cfu Staph, 250 μg CSA-90 and/or 10 μg rhBMP-2 via ACS) | # Infected Culls (Staphlococcus aureus; 10^4 cfu Staph, animals/group) | # Pin Slips (Staphlococcus aureus; 10^4 cfu Staph, animals/group) | Animals culled with a pin slip (no infection seen in culture) (Staphlococcus aureus; inoculated group) | Animals culled with infected fractures (Staphlococcus aureus; inoculated with S. aureus)
CCCCCN(CCCCC)CCC[C@@H](C)[C@H]1CC[C@H]2[C@@H]3[C@H](OCCCN)C[C@@H]4C[C@H](OCCCN)CC[C@]4(C)[C@H]3C[C@H](OCCCN)[C@]12C [CSA-90] | 3 µg/mL (≈ 4.25 µM) | 0.6 µg/mL (≈ 0.851 µM) | ~50% | increased but not to 100% | 0% | 0% | 0/6 | 0/6 | significantly increased | significantly increased | no significant decrease | evidence of localized tissue mineralization | 20% | 0% | 0/5 | 1/5 | one | no infected culls
CCCCCCCCN(CCCCCCCC)CCC[C@@H](C)[C@H]1CC[C@H]2[C@@H]3[C@H](OCCCN)C[C@@H]4C[C@H](OCCCN)CC[C@]4(C)[C@H]3C[C@H](OCCCN)[C@]12C [CSA-91] | 6 µg/mL (≈ 7.6 µM) | 5 µg/mL (≈ 6.33 µM) | – | – | – | – | – | – | – | – | – | – | – | – | – | – | – | –
